Reference: PMC10941260 (RSC Advances, 2024)
Like-named read-outs stand apart in the source and are kept apart here.

Tests used:
MAO-B [1] = biological target: T1, MAO-B (Mus musculus, UniProt Q8BW75); assay: Monoamine oxidase B inhibition assay; type: biochemical, Mice; conditions: compared to the most potent compound (a12)
T1 sequence (Q8BW75 2-520): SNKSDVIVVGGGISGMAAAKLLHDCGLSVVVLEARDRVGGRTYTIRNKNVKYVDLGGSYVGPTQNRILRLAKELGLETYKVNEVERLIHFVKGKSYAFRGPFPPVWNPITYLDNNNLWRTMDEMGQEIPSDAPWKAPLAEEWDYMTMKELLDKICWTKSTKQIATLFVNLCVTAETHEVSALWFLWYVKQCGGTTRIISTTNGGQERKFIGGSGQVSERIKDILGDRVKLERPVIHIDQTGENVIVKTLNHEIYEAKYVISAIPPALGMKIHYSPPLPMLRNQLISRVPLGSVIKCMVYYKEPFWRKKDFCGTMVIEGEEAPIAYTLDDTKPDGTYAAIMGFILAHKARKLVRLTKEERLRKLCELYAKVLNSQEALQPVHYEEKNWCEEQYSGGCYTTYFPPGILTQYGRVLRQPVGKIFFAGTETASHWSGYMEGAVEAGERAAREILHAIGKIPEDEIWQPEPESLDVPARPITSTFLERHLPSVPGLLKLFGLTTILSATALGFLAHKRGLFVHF

AChE [2] = biological target: T2, AChE (Electrophorus electricus, UniProt O42275); assay: Cholinesterase inhibition assay; type: biochemical, electric eels; conditions: for fold decrease in potency against AChE: compared to the most potent compound (a11)
T2 sequence (O42275 24-633): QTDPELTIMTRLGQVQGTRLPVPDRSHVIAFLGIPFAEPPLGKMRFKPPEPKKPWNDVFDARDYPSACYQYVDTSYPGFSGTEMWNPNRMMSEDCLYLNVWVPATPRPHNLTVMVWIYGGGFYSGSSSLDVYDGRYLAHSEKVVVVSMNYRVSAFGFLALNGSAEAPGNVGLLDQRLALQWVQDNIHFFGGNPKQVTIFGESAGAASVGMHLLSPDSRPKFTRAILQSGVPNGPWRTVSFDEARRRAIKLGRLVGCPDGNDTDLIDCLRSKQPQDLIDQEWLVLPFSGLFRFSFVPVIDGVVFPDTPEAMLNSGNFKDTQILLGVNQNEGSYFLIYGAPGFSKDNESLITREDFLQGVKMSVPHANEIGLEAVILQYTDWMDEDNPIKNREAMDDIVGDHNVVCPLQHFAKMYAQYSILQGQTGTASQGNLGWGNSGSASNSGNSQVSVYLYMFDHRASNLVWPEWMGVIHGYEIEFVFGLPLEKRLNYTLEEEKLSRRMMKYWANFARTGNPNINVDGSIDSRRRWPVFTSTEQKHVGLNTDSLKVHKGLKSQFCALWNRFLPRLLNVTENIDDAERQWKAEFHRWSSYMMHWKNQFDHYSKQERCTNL

MAO-A [3] = biological target: T3, MAO-A (Mus musculus, UniProt Q64133); assay: Monoamine oxidase A inhibition assay; type: biochemical, Mice; conditions: compared to (a3)
T3 sequence (Q64133 1-526): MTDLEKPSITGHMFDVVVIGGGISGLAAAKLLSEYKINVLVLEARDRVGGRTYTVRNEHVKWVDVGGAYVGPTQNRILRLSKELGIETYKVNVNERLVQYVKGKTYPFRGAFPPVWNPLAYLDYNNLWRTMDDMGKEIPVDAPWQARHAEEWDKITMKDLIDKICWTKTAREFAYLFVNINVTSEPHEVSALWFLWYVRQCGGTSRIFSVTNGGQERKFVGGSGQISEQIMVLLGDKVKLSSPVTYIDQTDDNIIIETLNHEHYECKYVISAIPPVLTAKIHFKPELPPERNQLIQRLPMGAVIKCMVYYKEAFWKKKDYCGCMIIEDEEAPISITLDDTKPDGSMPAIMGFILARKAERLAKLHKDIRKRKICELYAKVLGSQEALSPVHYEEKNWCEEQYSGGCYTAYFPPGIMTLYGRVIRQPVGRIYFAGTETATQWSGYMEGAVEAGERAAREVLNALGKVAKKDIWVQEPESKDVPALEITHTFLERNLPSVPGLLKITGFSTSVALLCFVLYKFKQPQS

BChE [4] = biological target: T4, BChE (Equus caballus, UniProt P81908); assay: Cholinesterase inhibition assay; type: biochemical, horse; conditions: for fold decrease in activity against BChE: compared to the di-methoxy substituted compound, printed as (a5)
T4 sequence (P81908 whole entry): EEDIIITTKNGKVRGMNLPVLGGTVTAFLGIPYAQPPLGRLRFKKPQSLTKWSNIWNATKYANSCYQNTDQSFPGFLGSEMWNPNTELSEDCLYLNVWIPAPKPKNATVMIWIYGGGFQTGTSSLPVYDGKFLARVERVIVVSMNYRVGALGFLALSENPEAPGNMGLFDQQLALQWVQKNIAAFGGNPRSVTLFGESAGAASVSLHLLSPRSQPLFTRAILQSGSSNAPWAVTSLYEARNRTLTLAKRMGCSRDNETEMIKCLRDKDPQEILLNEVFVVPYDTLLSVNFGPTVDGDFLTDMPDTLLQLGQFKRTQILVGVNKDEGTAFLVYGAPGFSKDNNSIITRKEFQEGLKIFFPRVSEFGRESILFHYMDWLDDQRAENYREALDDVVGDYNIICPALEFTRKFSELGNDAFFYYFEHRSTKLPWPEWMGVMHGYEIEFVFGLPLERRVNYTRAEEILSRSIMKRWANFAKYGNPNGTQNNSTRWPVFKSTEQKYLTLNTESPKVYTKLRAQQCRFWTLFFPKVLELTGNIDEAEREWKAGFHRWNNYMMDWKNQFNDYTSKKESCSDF

MAO-A [5] = assay: Enzyme kinetic study; type: biochemical; conditions: Lineweaver-Burk plot, substrate p-tyramine
MAO-B [6] = assay: Enzyme kinetic study; type: biochemical; conditions: Lineweaver-Burk plot, substrate p-tyramine
BChE [7] = biological target: T4, BChE; assay: Enzyme kinetic study; type: biochemical; conditions: Lineweaver-Burk plot, substrate BTCII
AChE [8] = biological target: T2, AChE; assay: Enzyme kinetic study; type: biochemical; conditions: Lineweaver-Burk plot, substrate ATCII
[9] = read-out: IC50 BChE, N/A = Not active (footnote b)

Molecule	fold decrease in potency against AChE (AChE [2])	IC50 (AChE [2]; read-out: IC50 AChE)	IC50 (AChE [2])	also measured
N-(2,6-Difluorophenyl)quinoline-8-sulfonamide [a3]	~3 fold	1010 ± 590 nM		fold reduction in potency against MAO-B (MAO-B [1]): 4 fold
Cc1ccc(F)c(CNS(=O)(=O)c2cccc3cccnc23)c1 [a2, N-(2-Fluoro-5-methylphenzyl)quinoline-8-sulfonamide]	~3 fold	2580 ± 970 nM		fold decrease in activity against MAO-A (MAO-A [3]): 4 fold; fold reduction in potency against MAO-B (MAO-B [1]): 4 fold
O=S(=O)(NCc1ccc(Cl)cc1Cl)c1cccc2cccnc12 [a15, N-(2,4-Dichlorobenzyl)-8-quinolinesulfonamide]	~2.5 fold		1400 ± 540 nM	
COc1ccc(CNS(=O)(=O)c2cccc3cccnc23)cc1 [a18, N-(4-Methoxybenzyl)-8-quinolinesulfonamide]	2 fold		1010 ± 610 nM	IC50 (BChE [4]): 2780 ± 920 nM; fold decrease in activity against BChE (BChE [4]): 2 fold
N-(2,3-Dihydro-1H-benzo[d]imidazole-2-yl)quinoline-8-sulfonamide [a7]		1730 ± 870 nM		fold reduction in potency against MAO-B (MAO-B [1]): 2 fold
O=S(=O)(NCc1cccc(Cl)c1)c1cccc2cccnc12 [a5, N-(3-Chlorobenzyl)quinoline-8-sulfonamide]	~4 fold		1950 ± 1070 nM	IC50 (BChE [4]): 2840 ± 1070 nM; fold decrease in activity against BChE (BChE [4]): ~2 fold; mode of inhibition toward MAO-A (MAO-A [5]): competitive inhibition
O=S(=O)(NCC1CCCCC1)c1cccc2cccnc12 [a10, N-(Cyclohexylmethyl)quinoline-8-sulfonamide]			1360 ± 770 nM	
O=S(=O)(NCc1ccc(Cl)cc1)c1cccc2cccnc12 [a4, N-(4-Chlorobenzyl)quinoline-8-sulfonamide]	~4 fold		2180 ± 1170 nM	
N-(4-Florobenzyl)-8-quinolinesulfonamide [a12]		2650 ± 970 nM		fold decrease in activity against MAO-A (MAO-A [3]): 2 fold; IC50 (BChE [4]; [9]): 1160 ± 770 nM; mode of inhibition toward MAO-B (MAO-B [6]): competitive inhibition
O=S(=O)(NCc1ccccc1Cl)c1cccc2cccnc12 [a16, N-(2-Chlorobenzyl)-8-quinolinesulfonamide]	~4 fold		1920 ± 870 nM	
N-(2-Fluorobenzyl)quinoline-8-sulfonamide [a13]	3 fold	1650 ± 970 nM		fold decrease in activity against MAO-A (MAO-A [3]): 2 fold; fold reduction in potency against MAO-B (MAO-B [1]): 3 fold
N#Cc1ccc(NS(=O)(=O)c2cccc3cccnc23)cc1 [a9, N-(4-Cyanophenyl)quinoline-8-sulfonamide]	7 fold		3780 ± 920 nM	
O=S(=O)(Nc1cccc(I)c1)c1cccc2cccnc12 [a1, N-(3-Iodophenyl)quinoline-8-sulfonamide]	~2 fold		1110 ± 570 nM	
N-(3,4-Dimethoxybenzyl)quinoline-8-sulfonamide [a6]	2 fold	1110 ± 470 nM		IC50 (BChE [4]; [9]): 1100 ± 890 nM; mode of inhibition toward BChE (BChE [7]): competitive inhibition
O=S(=O)(Nc1ccc(I)cc1)c1cccc2cccnc12 [a8, N-(4-Iodophenyl)quinoline-8-sulfonamide]	~2 fold		1150 ± 720 nM	
O=S(=O)(NCc1cc(F)cc(C(F)(F)F)c1)c1cccc2cccnc12 [a14, N-(3-Fluoro-5-(trifluoromethyl)benzyl)quinoline-8-sulfonamide]		3060 ± 770 nM		IC50 (BChE [4]; [9]): 1180 ± 570 nM
N-(2-Hydroxyphenyl)quinoline-8-sulfonamide [a11]		580 ± 50 nM		fold reduction in potency against MAO-B (MAO-B [1]): 2 fold; mode of inhibition toward AChE (AChE [8]): competitive inhibition
